This experiment deals with expression of Fwa116 in human blood vessel endothelia cell. Put plainly: Effect of ox-LDL and soybean genistein on expression of Fwa116 (Northern blotting). The format is cell-based. The conditions noted are these: cells treated with ox-LDL (200 μg/mL) and soybean genistein (100 μM) simultaneously, FIG. 3. The protocol: Low density lipoproteins (LDL) with a density of 1.019 to 1.063 obtained by density gradient centrifugation were oxidized with Cu^2+ for 24 hours, filtrated through a 0.22 μm filter membrane, and stored at 4[…] in a dark place. The value of TBARS was determined and the ox-LDL was separated by electrophoresis on agarose gel. More than 10 nmol/mg of TBARS value and the increase of electrophoretic mobility indicated successful oxidation.
The frozen tube containing human blood vessel endothelia cells was taken out from liquid-nitrogen, and put rapidly into a water bath at 37[…]]. After being melted completely, the cell suspension was inoculated to a 25 mL culture bottle containing 5 mL of RPMI or DMEM with 10% FES. Culture was carried out overnight in an incubator at 37[…] and 5% of CO2 concentration. The medium was replaced on the next day.
When Cells were grown to substantial confluency (with a covering percentage of around 80%), the original medium was discarded. After Cells were rinsed twice with 1× PBS (pH7.4), 0.125% trypsin was added, and the cells were digested for 5-10 minutes at 37 °C. […] The number of cells was counted, and the cell suspension was inoculated to a culture bottle containing 5 mL of RPMI or DMEM with 10% FES to a concentration of 100,000 cells/mL. […]

As for `O=c1c(-c2ccc(O)cc2)coc2cc(O)cc(O)c12` [soybean genistein, genistein], the “increase of expression of Fwa116” value is on record as “more than 10 fold”.

(Values after patent publication US20040082031A1, “Inflammatory inhibition factor fwa116” (priority 2001, published 2004).)
